Reference: US10993983B2, “Cyclic peptide epitopes and small-molecule mimics for inducing autophagy” (TRUSTEES OF TUFTS COLLEGE, priority 2016, dated 2021)
*1 amine or outer side, *2 acyl side, *3 side chain or, on linkers, in order; H or OH if unused. Where a SMILES comes first, the peptide text is derived from it. Bridges are numbered along the chain shown (N, C = ends). Where no end group is shown, it is not given here. [ ]: non-standard residue; d: D form. The star is where a group is joined. NH(CH2CH2O)2(CH2)6Cl = ClCCCCCCOCCOCCN*; oXylylene = c1ccc(C[*:2])c(C[*:1])c1; Suc = O=C(CCC(=O)[*:2])[*:1]; Carboxymethyl = O=C(O)C*; Pent4ynoyl = C#CCCC(=O)*

Columns and labels:
[1] = system: HaLo-GFP-Mito+mCherry-DHFR HeLa cells; test: Chloroalkane Penetration Assay (CAPA); format: in vitro ADME; conditions: flow cytometry
Source text: FIGS. 19A-19C. Chloroalkane Penetration Assay quantitates relative cytosolic access of exogenously added DD5-o. 19A. Schematic showing the experimental procedure of CAPA, which uses a HaloEnzyme-GFP-expressing HeLa cell line. […] For CAPA, cells are pre-treated with vehicle or peptide, washed, and chased with HTag-TAMRA. Cells treated with cell-penetrant molecules have had their Haloenzyme blocked, thus preventing the HTag-TAMRA from covalently labeling the cells. 19B. Representative images of cells after CAPA, showing Haloenzyme-GFP fluorescence, Halotag-TAMRA fluorescence and the overlay of the two. […] 19C. […]
The Chloroalkane Penetration Assay is described in detail in U.S. Provisional Application No. 62/424,955, filed Nov. […] Following this incubation period, the amount of unreacted Haloenzyme was measured by chasing with a Haloligand-bearing dye (here, Htag-TAMRA). The relative amount of red cellular fluorescence after this chase was then quantified by flow cytometry. […] We evaluated CAPA with HTag-cTMP, a small molecule previously used as a tool for cytosolic protein localization.^71 As quantitated by flow cytometry, we observed inhibition of the HTag-TAMRA signal when cells were pre-incubated with HTag-cTMP, and this inhibition was dose-dependent with respect to amount of the HTag-cTMP used in the pre-incubation step. […]

GFP-LC3 transgenic mice [2] = test: GFP-LC3 puncta in muscle tissue of GFP-LC3 transgenic mice; format: in vivo; conditions: for autophagy induction in vivo (GFP-LC3 puncta in muscle), result in words: i.p. injection, muscle tissue after 6 hours, Tat-11mer 15 mg/kg, D-(Tat-11mer) 15 mg/kg, DD5-o 15, 30 mg/kg
Protocol: To show whether Tat-11mer and DD5-o have similar in vivo activity, we tested their ability to induce autophagy in GFP-LC3 transgenic mice^59 as described.^10 Peptides were delivered via intraperitoneal injection, and after 6 hours, muscle tissue was collected. GFP-LC3 puncta were imaged in thin sections and counted by an observer blinded to experimental condition (FIG. 10, a,b).
(§1) HeLa/GFP-LC3 cells generated as previously shown,^10 treated with peptides for 3 hour as described above. […] After 6 h, mice were sacrificed and fixed by perfusion with 4% PFA in PBS. Tissues were fixed in 4% PFA overnight, 15% sucrose for 4 hours, and 30% sucrose overnight before frozen sections were prepared and used for fluorescence microscopy analysis as described.^16 GFP-LC3 puncta were quantified per 2500 μm^2 of tissue. Animal experiments were approved by the UTSW Institutional Animal Care Use Committee and performed in accordance with institutional guidelines.

HeLa-htt103Q cells [3] = test: Htt aggregate assay; format: cell-based
Protocol: Along with proteasomal degradation, autophagy is the major pathway by which aggregated proteins are removed from the cytoplasm.
HeLa-htt103Q cells were cultured as described previously.^60 For the Htt103Q aggregate assay, cells were fixed with 2% PFA in PBS and CFP-positive aggregates […] were counted via fluorescence microscopy by an observer blinded to experimental condition.

HeLa cells = test: Autophagy induction judged by p62 and LC3 immunoblots together; format: cell-based; conditions: HeLa cells; for concentration at which autophagy induction (p62 degradation and LC3 lipidation) was observed: immunoblot, 3 hour treatment
Method in brief: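 HeLa cells exposed to peptide (acetyl N-cap, C-terminal amide) for 3 h in acidified OPTI-MEM, then lysed and immunoblotted for p62 and LC3. Activity is the lowest concentration giving both p62 degradation and LC3-I to LC3-II conversion, scored semi-quantitatively.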

HeLa/GFP-LC3 cells = test: GFP-LC3 puncta assay with and without bafilomycin A1; format: cell-based
Protocol: as §1

GFP-LC3 transgenic mice [4] = conditions: background; 20 mg/kg; cited from earlier work
HeLa-htt103Q cells [5] = conditions: 20 μM; previously shown; cited from earlier work
[6] = background; cited from earlier work

## CC[C@H](C)[C@H](NC(=O)[C@H](Cc1c[nH]cn1)NC(=O)[C@H](Cc1ccccc1)NC(=O)[C@H]1CSCc2ccccc2CSC[C@@H](NC(=O)[C@@H](NC(=O)CCC(=O)NCCOCCOCCCCCCCl)C(C)C)C(=O)N[C@@H](CC(N)=O)C(=O)N[C@@H](C)C(=O)N1)C(=O)N[C@@H](Cc1c[nH]c2ccccc12)C(=O)N[C@@H](Cc1c[nH]cn1)C(N)=O [HTag-DD5-o, (HTag)-VcNAcFHIWH] ({NH(CH2CH2O)2(CH2)6Cl-Suc}-V[dC]NA[dC]FHIWH-NH2; linker 2-5 via oXylylene)
[1]
  inhibition of HTag-TAMRA fluorescence (cytosolic access), result in words: dose-dependent suppression of the HTag-TAMRA signal

## CC[C@H](C)[C@H](NC(=O)[C@H](Cc1c[nH]cn1)NC(=O)[C@H](Cc1ccccc1)NC(=O)[C@@H](CSCC(=O)O)NC(=O)[C@H](C)NC(=O)[C@H](CC(N)=O)NC(=O)[C@@H](CSCC(=O)O)NC(=O)[C@@H](NC(=O)CCC(=O)NCCOCCOCCCCCCCl)C(C)C)C(=O)N[C@@H](Cc1c[nH]c2ccccc12)C(=O)N[C@@H](Cc1c[nH]cn1)C(N)=O [HTag-DD5-neg, (HTag)-VcNAcFHIWH] ({NH(CH2CH2O)2(CH2)6Cl-Suc}-V[dC](Carboxymethyl)NA[dC](Carboxymethyl)FHIWH-NH2)
[1]
  inhibition of HTag-TAMRA fluorescence (cytosolic access), result in words: little inhibition of HTag-TAMRA fluorescence

## (pa)-VcNAcFHIWH (Pent4ynoyl-V[dC]NA[dC]FHIWH; linker 2-5 via ortho‑xylene (inferred); not fully specified (C-terminus); printed as (pa)-VcNAcFHIWH) [LL5-o, ortho-xylene linker; stereoisomer with two L-cysteines, negative control]
GFP-LC3 transgenic mice [2]
  autophagy induction in vivo (GFP-LC3 puncta in muscle), result in words: no effect
HeLa-htt103Q cells [3]; equimolar concentrations
  clearance of htt103Q aggregates by control peptides: no significant clearance of aggregates

## C#CCCC(=O)N[C@H](C(=O)N[C@@H]1CSCc2ccccc2CSC[C@H](C(=O)N[C@@H](Cc2ccccc2)C(=O)N[C@@H](Cc2cnc[nH]2)C(=O)N[C@H](C(=O)N[C@@H](Cc2c[nH]c3ccccc23)C(=O)N[C@@H](Cc2cnc[nH]2)C(N)=O)[C@@H](C)CC)NC(=O)[C@H](C)NC(=O)[C@H](CC(N)=O)NC1=O)C(C)C [DD5-o, (pa)-VcNAcFHIWH] (Pent4ynoyl-V[dC]NA[dC]FHIWH-NH2; linker 2-5 via oXylylene)
HeLa cells
  concentration at which autophagy induction (p62 degradation and LC3 lipidation) was observed: 20 µM
HeLa cells; p62 and LC3 immunoblots
  autophagy induction, result in words: nearly equal potency
HeLa/GFP-LC3 cells; 3 hours in serum-free media
  concentration at which autophagy was induced (GFP-LC3 puncta): 10 µM
GFP-LC3 transgenic mice [2]
  autophagy induction in vivo (GFP-LC3 puncta in muscle), result in words: induced autophagy at 15 and 30 mg/kg in a dose-dependent manner
HeLa-htt103Q cells [3]; 20 μM
  percentage of cells with small htt103Q aggregates and number of small aggregates per cell: significant decrease

## Tat-11mer: eleven residues derived from Beclin 1, with a Gly-Gly linker and Tat sequence of the N-terminus (SEQ ID NO: 63) (Ac-YGRKKRRQRRRGGVWNATFHIWHD-NH2)
HeLa cells
  concentration at which autophagy induction (p62 degradation and LC3 lipidation) was observed: 5 µM
HeLa/GFP-LC3 cells; activity at 10 μM similar to DD5-o at 40 μM
  fold more potent activation of autophagy (GFP-LC3 puncta): roughly 4 fold
GFP-LC3 transgenic mice [2]; equimolar doses
  in vivo potency relative to full-length Tat-Beclin 1: 2- to 4 fold
GFP-LC3 transgenic mice [2]
  autophagy induction in vivo (GFP-LC3 puncta in muscle), result in words: largest increase in autophagosome formation
HeLa-htt103Q cells [3]; 10 μM
  percentage of cells with small htt103Q aggregates and number of small aggregates per cell: significant decrease

## YGRKKRRQRRRGGTNVFNATFEIWHDGEFGT [Tat-Beclin 1]
HeLa cells
  concentration at which autophagy induction (p62 degradation and LC3 lipidation) was observed: 10 µM
HeLa-htt103Q cells [3]; 12.5 μM
  activity in htt103Q aggregate assay: no activity
GFP-LC3 transgenic mice [4]
  autophagy induction in mice, result in words: induces autophagy when administered to mice at 20 mg/kg
HeLa-htt103Q cells [5]
  number of small and large htt103Q aggregates: decrease the number of small, but not large, htt103Q aggregates
[6]
  concentration at which autophagic flux is significantly increased in cell culture: 10 µM
